Source: PMC8449061, “A structural model for (GlcNAc)2 translocation via a periplasmic chitooligosaccharide-binding protein from marine Vibrio bacteria” (The Journal of Biological Chemistry, 2021)

Assays:
Format in all cases: binding
VhCBP WT = assay: ITC titration of WT VhCBP with (GlcNAc)2–4; conditions: for ΔG° / ΔH° / −TΔS° / Kd: 20 mM Tris-HCl pH 8.0, 25 °C; for ΔG° / ΔH° / −TΔS°: mean ± SD; for Kd: n fixed at 1, mean ± SD of three experiments; for fold lower affinity than (GlcNAc)2: from Kd values
Method: We previously reported ITC data for (GlcNAc)2–4 binding to VhCBP in 20 mM potassium phosphate, pH 8.0, at 4 °C ([13]). Here, we re-evaluated the ITC data by conducting binding experiments in Tris HCl, pH 8.0, at 25 °C using (GlcNAc)n (n = 2–4) as the ligands. The binding interactions for individual ligands were determined assuming a 1:1 stoichiometry.
(§1) Figure 5 ITC profiles obtained from (GlcNAc)2titration using VhCBP WT and mutants. Thermograms (upper) and binding isotherms with theoretical fits (lower) of the individual titrations are presented. Titration experiments were conducted in 20 mM Tris HCl, pH 8.0, at 25 °C. ITC, isothermal titration calorimetry. VhCBP, CBP from Vibrio campbellii type strain ATCC BAA-1116.
(§2) ITC experiments were conducted by titrating 200 μM (GlcNAc)n (n = 2, 3, or 4) solutions from the injection syringe into 20 μM WT VhCBP in the sample cell. The titrations were performed in 20 mM Tris-HCl buffer, pH 8.0, by a PEAQ-ITC (Malvern Instruments) using the operational software installed in the equipment. Briefly, the temperature in the sample cell was maintained at 25 °C, and the difference in temperature (ΔT) between the reference cell and the sample cell was compensated by heaters fitted to the cells. The compensation energy utilized per second was plotted against experimental time. Peak integrations of the individual troughs were replotted against the molar ratio of the ligand to protein. The binding isotherm thus obtained was used for data-fitting analysis using the ‘One-Set of Sites’ model defined in MicroCal PEAQ-ITC Analysis Software to obtain Kd, ΔG°, ΔH°, and ΔS° terms. […] Titrations of (GlcNAc)2 to the individual VhCBP mutants were performed as described for the WT protein.
Table S2: ITC experimental conditions for titration of VhCBP and its mutants with (GlcNAc) 2-4 . […]

VhCBP D365A = assay: ITC titration of VhCBP mutant D365A with (GlcNAc)2
Description: (§3) These proteins were used for ITC binding experiments with (GlcNAc)2 as the ligand. […] Degrees of conservation among five members of cluster/subcluster C-IV SBPs (VhCBP, VcCBP, TmCeBP, TmMnBP1, and TmMnBP2) are also represented by coloring dark red (high degree of conservation) to pale red (moderate degree of conservation) to white (low degree of conservation).
as §1, §2
(§4) Table S2: ITC experimental conditions for titration of VhCBP and its mutants with (GlcNAc) 2-4 .
(§5) Table S3: Conditions for co-crystallization of VhCBP mutants with (GlcNAc) 2.

VhCBP F437A = assay: ITC titration of VhCBP mutant F437A with (GlcNAc)2
Description: as §3, §1, §2, §4, §5

VhCBP N204A = assay: ITC titration of VhCBP mutant N204A with (GlcNAc)2
Description: as §3, §1, §2, §4, §5

VhCBP S221A = assay: ITC titration of VhCBP mutant S221A with (GlcNAc)2
Description: as §3, §1, §2, §4, §5

VhCBP W363A/W513A = assay: ITC titration of VhCBP double mutant W363A/W513A with (GlcNAc)2; conditions: 20 mM Tris HCl pH 8.0, 25 °C
Description: To evaluate the contributions of the amino acid residues in (GlcNAc)2 binding, we carried out site-directed mutagenesis to substitute the designated residues and successfully produced nine single mutants, E10A, N204A, S221A, W363A, D365A, N409A, F411A, F437A, and W513A, and one double mutant, W363A/W513A. All proteins were purified to homogeneity by Ni-NTA affinity chromatography, followed by gel filtration, and their purities were checked by SDS-PAGE analysis (Fig. S2). These proteins were used for ITC binding experiments with (GlcNAc)2 as the ligand. […] The effects on ΔG° in the other mutants (E10A, N204A, S221A, N409A, and F411A) were moderate, although one mutation had been introduced into an amino acid with a high degree of conservation (Asn^204). Changes in ΔG° (ΔΔG°) resulting from all the mutations were mapped on the structure of VhCBP in complex with (GlcNAc)2 as shown in Figure 6B. Degrees of conservation among five members of cluster/subcluster C-IV SBPs (VhCBP, VcCBP, TmCeBP, TmMnBP1, and TmMnBP2) are also represented by coloring dark red (high degree of conservation) to pale red (moderate degree of conservation) to white (low degree of conservation).
Figure 5 ITC profiles obtained from (GlcNAc)2titration using VhCBP WT and mutants. Thermograms (upper) and binding isotherms with theoretical fits (lower) of the individual titrations are presented. […]

VhCBP E10A = assay: ITC titration of VhCBP mutant E10A with (GlcNAc)2
Description: as §3, §1, §2, §4, §5

VhCBP W363A = assay: ITC titration of VhCBP mutant W363A with (GlcNAc)2
Description: as §3, §1, §2, §4, §5

VhCBP F411A = assay: ITC titration of VhCBP mutant F411A with (GlcNAc)2
Description: as §3, §1, §2, §4, §5

VhCBP W513A = assay: ITC titration of VhCBP mutant W513A with (GlcNAc)2
Description: as §3, §1, §2, §4, §5

VhCBP N409A = assay: ITC titration of VhCBP mutant N409A with (GlcNAc)2
Description: as §3, §1, §2, §4, §5

CC(=O)N[C@H]1[C@H](O[C@H]2[C@H](O)[C@@H](NC(C)=O)C(O)O[C@@H]2CO)O[C@H](CO)[C@@H](O[C@@H]2O[C@H](CO)[C@@H](O)[C@H](O)[C@H]2NC(C)=O)[C@@H]1O (stereo partly drawn) [(GlcNAc)3]
ΔG° (VhCBP WT): -9.7 ± 0.3 kcal/mol
ΔH° (VhCBP WT): -4.7 ± 0.1 kcal/mol
−TΔS° (VhCBP WT): -5.0 ± 0.3 kcal/mol
Kd (VhCBP WT): 0.09 ± 0.05 µM
fold lower affinity than (GlcNAc)2 (VhCBP WT): 3 fold

CC(=O)N[C@H]1[C@H](O[C@H]2[C@H](O)[C@@H](NC(C)=O)C(O)O[C@@H]2CO)O[C@H](CO)[C@@H](O)[C@@H]1O (stereo partly drawn) [(GlcNAc)2]
ΔΔG° (VhCBP D365A; D365A versus WT): +8.6 ± 0.3 kcal.mol^−1
Kd (VhCBP D365A; ITC, D365A, 20 mM Tris-HCl pH 8.0, 25 °C, mean ± SD): 65000 µM
ΔG° (VhCBP D365A; ITC, D365A, pH 8.0, 25 °C): -1.6 ± 0.0 kcal/mol
ΔH° (VhCBP D365A; ITC, D365A, pH 8.0, 25 °C): -11.3 ± 0.4 kcal/mol
−TΔS° (VhCBP D365A; ITC, D365A, pH 8.0, 25 °C): 9.7 ± 0.4 kcal/mol
ΔG° (VhCBP WT): -10.3 ± 0.3 kcal/mol
ΔH° (VhCBP WT): -3.9 ± 0.1 kcal/mol
−TΔS° (VhCBP WT): -6.4 ± 0.2 kcal/mol
Kd (VhCBP WT): 0.03 ± 0.01 µM
ΔΔG° (VhCBP F437A; F437A versus WT): +4.1 ± 0.3 kcal.mol^−1
Kd (VhCBP F437A; ITC, F437A, 20 mM Tris-HCl pH 8.0, 25 °C, mean ± SD): 29.7 ± 0.5 µM
ΔG° (VhCBP F437A; ITC, F437A, pH 8.0, 25 °C): -6.2 ± 0.0 kcal/mol
ΔH° (VhCBP F437A; ITC, F437A, pH 8.0, 25 °C): -11.0 ± 0.4 kcal/mol
Kd (VhCBP N204A; ITC, N204A, 20 mM Tris-HCl pH 8.0, 25 °C, mean ± SD): 0.83 ± 0.17 µM
ΔG° (VhCBP N204A; ITC, N204A, pH 8.0, 25 °C): -8.3 ± 0.1 kcal/mol
ΔH° (VhCBP N204A; ITC, N204A, pH 8.0, 25 °C): -0.75 ± 0.05 kcal/mol
−TΔS° (VhCBP N204A; ITC, N204A, pH 8.0, 25 °C): -7.6 ± 0.2 kcal/mol
ΔΔG° (VhCBP N204A; N204A versus WT): +2.1 ± 0.3 kcal.mol^−1
Kd (VhCBP S221A; ITC, S221A, 20 mM Tris-HCl pH 8.0, 25 °C, mean ± SD): 0.07 ± 0.06 µM
ΔG° (VhCBP S221A; ITC, S221A, pH 8.0, 25 °C): -10.2 ± 1.0 kcal/mol
ΔH° (VhCBP S221A; ITC, S221A, pH 8.0, 25 °C): -5.3 ± 0.7 kcal/mol
−TΔS° (VhCBP S221A; ITC, S221A, pH 8.0, 25 °C): -4.9 ± 1.4 kcal/mol
ΔΔG° (VhCBP S221A; S221A versus WT): +0.1 ± 1.0 kcal.mol^−1
binding detected by ITC (ND represents no detectable binding) (VhCBP W363A/W513A): did not exhibit any clear heat release
ΔΔG° (VhCBP E10A; E10A versus WT): +1.9 ± 0.2 kcal.mol^−1
Kd (VhCBP E10A; ITC, E10A, 20 mM Tris-HCl pH 8.0, 25 °C, mean ± SD): 0.71 ± 0.07 µM
ΔG° (VhCBP E10A; ITC, E10A, pH 8.0, 25 °C): -8.4 ± 0.1 kcal/mol
ΔH° (VhCBP E10A; ITC, E10A, pH 8.0, 25 °C): -8.8 ± 0.1 kcal/mol
−TΔS° (VhCBP E10A; ITC, E10A, pH 8.0, 25 °C): 0.4 ± 0.2 kcal/mol
Kd (VhCBP W363A; ITC, W363A, 20 mM Tris-HCl pH 8.0, 25 °C, mean ± SD): 80.2 ± 19.9 µM
ΔG° (VhCBP W363A; ITC, W363A, pH 8.0, 25 °C): -5.6 ± 0.1 kcal/mol
ΔH° (VhCBP W363A; ITC, W363A, pH 8.0, 25 °C): -1.9 ± 1.8 kcal/mol
−TΔS° (VhCBP W363A; ITC, W363A, pH 8.0, 25 °C): -3.7 ± 2.0 kcal/mol
ΔΔG° (VhCBP W363A; W363A versus WT): +4.7 ± 0.4 kcal.mol^−1
ΔΔG° (VhCBP F411A; F411A versus WT): +1.6 ± 0.3 kcal.mol^−1
Kd (VhCBP F411A; ITC, F411A, 20 mM Tris-HCl pH 8.0, 25 °C, mean ± SD): 0.4 ± 0.07 µM
ΔG° (VhCBP F411A; ITC, F411A, pH 8.0, 25 °C): -8.7 ± 0.1 kcal/mol
ΔH° (VhCBP F411A; ITC, F411A, pH 8.0, 25 °C): -3.3 ± 0.1 kcal/mol
−TΔS° (VhCBP F411A; ITC, F411A, pH 8.0, 25 °C): -5.4 ± 0.1 kcal/mol
Kd (VhCBP W513A; ITC, W513A ('half-open'/semiopen state), 20 mM Tris-HCl pH 8.0, 25 °C, mean ± SD): 36.8 ± 7.4 µM
ΔG° (VhCBP W513A; ITC, W513A, pH 8.0, 25 °C): -6.1 ± 0.1 kcal/mol
ΔH° (VhCBP W513A; ITC, W513A, pH 8.0, 25 °C): -5.8 ± 0.0 kcal/mol
−TΔS° (VhCBP W513A; ITC, W513A, pH 8.0, 25 °C): -0.3 ± 0.1 kcal/mol
lower affinity of semiopen state than the closed state (VhCBP W513A; W513A (semiopen) versus WT (closed), from Kd): 1200
ΔΔG° (VhCBP W513A; W513A versus WT): +4.2 ± 0.3 kcal.mol^−1
Kd (VhCBP N409A; ITC, N409A, 20 mM Tris-HCl pH 8.0, 25 °C, mean ± SD): 0.45 ± 0.1 µM
ΔG° (VhCBP N409A; ITC, N409A, pH 8.0, 25 °C): -8.7 ± 0.1 kcal/mol
ΔH° (VhCBP N409A; ITC, N409A, pH 8.0, 25 °C): -9.6 ± 0.6 kcal/mol
−TΔS° (VhCBP N409A; ITC, N409A, pH 8.0, 25 °C): 1.0 ± 0.7 kcal/mol
ΔΔG° (VhCBP N409A; N409A versus WT): +1.6 ± 0.2 kcal.mol^−1

CC(=O)N[C@H]1[C@H](O[C@H]2[C@H](O)[C@@H](NC(C)=O)C(O)O[C@@H]2CO)O[C@H](CO)[C@@H](O[C@@H]2O[C@H](CO)[C@@H](O[C@@H]3O[C@H](CO)[C@@H](O)[C@H](O)[C@H]3NC(C)=O)[C@H](O)[C@H]2NC(C)=O)[C@@H]1O (stereo partly drawn) [(GlcNAc)4]
ΔG° (VhCBP WT): -8.8 ± 0.3 kcal/mol
ΔH° (VhCBP WT): -4.8 ± 0.6 kcal/mol
−TΔS° (VhCBP WT): -4.0 ± 1.0 kcal/mol
Kd (VhCBP WT): 0.4 ± 0.24 µM
fold lower affinity than (GlcNAc)2 (VhCBP WT): 12 fold
